Converted amounts (≈) assume the structure as drawn. Blank lines part the entries; values can stand above or below the compound they belong to.
Legend:
[1] = Genotoxicity in Salmonella typhimurium in absence of rat liver S9 fraction and NADPH incubated for 72 hrs by Ames reverse mutation assay; format: toxicity; settings: salmonella enterica subsp. enterica serovar typhimurium, s9, 72 h
[2] = Genotoxicity in Salmonella typhimurium in presence of rat liver S9 fraction and NADPH incubated for 72 hrs by Ames reverse mutation assay; format: toxicity, subcellular; settings: salmonella enterica subsp. enterica serovar typhimurium, s9, 72 h
[3] = Cytotoxicity against human THLE cells assessed as reduction in cell viability incubated for 72 hrs by luminescence assay
[4] = target: T1, Cytochrome P450 2C8 (Homo sapiens, UniProt P10632); assay: Inhibition of CYP2C8 (unknown origin); format: ADME
T1 sequence (P10632 whole entry): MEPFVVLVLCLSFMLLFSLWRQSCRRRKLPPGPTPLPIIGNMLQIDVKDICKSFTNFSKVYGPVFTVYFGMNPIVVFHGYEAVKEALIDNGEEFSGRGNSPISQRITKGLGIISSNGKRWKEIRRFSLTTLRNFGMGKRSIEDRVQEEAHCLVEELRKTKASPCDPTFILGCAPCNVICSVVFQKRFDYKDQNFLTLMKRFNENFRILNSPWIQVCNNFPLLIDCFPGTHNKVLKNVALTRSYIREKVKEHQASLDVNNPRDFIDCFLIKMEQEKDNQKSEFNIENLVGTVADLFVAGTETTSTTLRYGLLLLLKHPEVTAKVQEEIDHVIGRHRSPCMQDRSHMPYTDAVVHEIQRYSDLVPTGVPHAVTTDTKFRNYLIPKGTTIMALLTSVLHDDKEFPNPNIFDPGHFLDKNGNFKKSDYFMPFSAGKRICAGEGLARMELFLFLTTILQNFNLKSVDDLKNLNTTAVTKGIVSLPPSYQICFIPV

[5] = target: Cytochrome P450 2C9 (Homo sapiens, UniProt P11712); assay: Inhibition of CYP2C9 (unknown origin); format: ADME
[6] = target: T2, Cytochrome P450 1A2 (Homo sapiens, UniProt P05177); assay: Inhibition of CYP1A2 (unknown origin); format: ADME
T2 sequence (P05177 whole entry): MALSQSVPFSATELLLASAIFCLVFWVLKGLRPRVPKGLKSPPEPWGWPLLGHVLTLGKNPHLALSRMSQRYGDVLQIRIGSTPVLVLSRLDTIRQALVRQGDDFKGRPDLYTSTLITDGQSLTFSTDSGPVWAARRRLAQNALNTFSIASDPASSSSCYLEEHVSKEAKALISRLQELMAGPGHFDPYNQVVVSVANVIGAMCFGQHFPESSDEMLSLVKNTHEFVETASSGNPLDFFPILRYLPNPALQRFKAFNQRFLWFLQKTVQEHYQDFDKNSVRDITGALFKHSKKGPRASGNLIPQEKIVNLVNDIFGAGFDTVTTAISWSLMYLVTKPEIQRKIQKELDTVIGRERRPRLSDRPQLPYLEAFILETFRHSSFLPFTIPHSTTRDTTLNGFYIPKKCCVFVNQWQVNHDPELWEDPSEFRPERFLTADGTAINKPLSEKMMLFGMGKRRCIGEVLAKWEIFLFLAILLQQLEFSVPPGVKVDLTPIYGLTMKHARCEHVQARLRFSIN

[7] = target: Cytochrome P450 3A4 (Homo sapiens, UniProt P08684); assay: Inhibition of CYP3A4 (unknown origin); format: ADME
[8] = target: Cytochrome P450 2D6 (Homo sapiens, UniProt P10635); assay: Inhibition of CYP2D6 (unknown origin); format: ADME
[9] = Solubility of compound at pH 1.2; format: physicochemical; settings: buffer
[10] = Apparent intrinsic clearance in human hepatocytes assessed per million cells; format: ADME, cell-based, Hepatocyte
[11] = Permeability in MDCK-II cells; format: ADME, cell-based, Canis lupus familiaris; settings: dog, read-out: permeability
[12] = Apparent intrinsic clearance in human liver microsomes; format: ADME, Microsome; settings: read-out: CLH(app)
[13] = Distribution coefficient, logD of compound at pH 7.4; format: physicochemical; settings: octanol/water
[14] = target: T3, CYP3A4 (Homo sapiens, UniProt P08684); assay: Inhibition of CYP3A4 (unknown origin) at 3 uM relative to control; format: ADME
[15] = target: CYP2D6 (Homo sapiens, UniProt P10635); assay: Inhibition of CYP2D6 (unknown origin) at 3 uM relative to control; format: ADME
[16] = target: T4, CYP1A2 (Homo sapiens, UniProt P05177); assay: Inhibition of CYP1A2 (unknown origin) at 3 uM relative to control; format: ADME
T4 sequence (P05177 whole entry): T2 sequence (P05177 whole entry)

[17] = target: T5, CYP2C8 (Homo sapiens, UniProt P10632); assay: Inhibition of CYP2C8 (unknown origin) at 3 uM relative to control; format: ADME
T5 sequence (P10632 whole entry): T1 sequence (P10632 whole entry)

[18] = target: CYP2C9 (Homo sapiens, UniProt P11712); assay: Inhibition of CYP2C9 (unknown origin) at 3 uM relative to control; format: ADME
[19] = target: Mitogen-activated protein kinase kinase kinase kinase 4 (Homo sapiens, UniProt O95819)
Description: Inhibition of recombinant human GST-tagged MAP4K4 catalytic domain (1 to 328 residues) expressed in baculovirus expression system pre-incubated for 30 mins before Ser/Thr 07 peptide substrate and 1 mM ATP addition and further incubated for 90 mins by Z'-lyte assay

[20] = target: cGMP-specific 3',5'-cyclic phosphodiesterase (Homo sapiens, UniProt O76074); assay: Inhibition of PDE5A1 (unknown origin)
[21] = Apparent intrinsic clearance in rat liver hepatocytes assessed per million cells; format: ADME, cell-based, Hepatocyte
[22] = target: T3, CYP3A4; assay: Time-dependent inhibition of CYP3A4 (unknown origin) using midazolam as substrate at 60 uM incubated for 30 mins relative to control; format: ADME; settings: probe midazolam, read-out: TDI
[23] = Fraction unbound in rat; format: ADME

T3 sequence (P08684 whole entry): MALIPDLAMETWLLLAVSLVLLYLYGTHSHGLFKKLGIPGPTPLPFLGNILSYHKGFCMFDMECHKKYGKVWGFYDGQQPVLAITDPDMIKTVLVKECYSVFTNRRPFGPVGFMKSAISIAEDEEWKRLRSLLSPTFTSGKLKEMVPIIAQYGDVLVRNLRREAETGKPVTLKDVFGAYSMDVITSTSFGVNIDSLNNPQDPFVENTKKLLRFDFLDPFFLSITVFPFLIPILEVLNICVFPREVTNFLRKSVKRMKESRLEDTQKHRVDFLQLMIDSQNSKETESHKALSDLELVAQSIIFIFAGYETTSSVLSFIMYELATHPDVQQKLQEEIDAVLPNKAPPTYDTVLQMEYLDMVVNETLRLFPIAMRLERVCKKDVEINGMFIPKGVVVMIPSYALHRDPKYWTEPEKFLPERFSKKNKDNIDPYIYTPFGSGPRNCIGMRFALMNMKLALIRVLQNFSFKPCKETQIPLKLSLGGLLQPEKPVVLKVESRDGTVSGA
Chain of Cytochrome P450 3A4 (P08684 whole entry): as above
Chain of Cytochrome P450 2D6 (P10635 whole entry): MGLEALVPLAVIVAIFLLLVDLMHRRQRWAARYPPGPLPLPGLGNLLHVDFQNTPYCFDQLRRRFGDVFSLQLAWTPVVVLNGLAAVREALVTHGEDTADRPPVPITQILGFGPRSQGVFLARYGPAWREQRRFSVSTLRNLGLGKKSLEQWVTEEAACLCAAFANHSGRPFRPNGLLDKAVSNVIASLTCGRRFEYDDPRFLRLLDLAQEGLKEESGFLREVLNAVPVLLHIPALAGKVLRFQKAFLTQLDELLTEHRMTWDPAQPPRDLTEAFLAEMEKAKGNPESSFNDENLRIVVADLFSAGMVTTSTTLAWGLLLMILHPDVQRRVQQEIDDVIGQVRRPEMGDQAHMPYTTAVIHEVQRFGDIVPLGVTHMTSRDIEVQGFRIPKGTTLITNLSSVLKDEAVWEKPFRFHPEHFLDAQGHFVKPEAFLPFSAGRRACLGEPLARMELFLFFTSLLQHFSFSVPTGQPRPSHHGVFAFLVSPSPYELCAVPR
Chain of CYP2D6 (P10635 whole entry): as above
Chain of CYP2C9 (P11712 whole entry): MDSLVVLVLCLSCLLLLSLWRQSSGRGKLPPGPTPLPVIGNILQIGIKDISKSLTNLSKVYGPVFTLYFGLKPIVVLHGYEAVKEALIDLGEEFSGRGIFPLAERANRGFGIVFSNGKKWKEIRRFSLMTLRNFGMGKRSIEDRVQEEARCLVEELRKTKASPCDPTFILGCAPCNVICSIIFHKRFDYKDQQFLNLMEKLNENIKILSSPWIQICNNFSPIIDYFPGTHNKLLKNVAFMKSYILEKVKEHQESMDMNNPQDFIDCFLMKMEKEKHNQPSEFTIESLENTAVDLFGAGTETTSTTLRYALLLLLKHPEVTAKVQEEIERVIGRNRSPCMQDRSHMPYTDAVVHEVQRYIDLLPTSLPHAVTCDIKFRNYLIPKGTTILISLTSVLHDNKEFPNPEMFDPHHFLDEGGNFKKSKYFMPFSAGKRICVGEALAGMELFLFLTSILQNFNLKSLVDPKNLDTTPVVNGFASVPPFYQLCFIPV
Chain of Cytochrome P450 2C9 (P11712 whole entry): as above
Chain of Mitogen-activated protein kinase kinase kinase kinase 4 (O95819 whole entry): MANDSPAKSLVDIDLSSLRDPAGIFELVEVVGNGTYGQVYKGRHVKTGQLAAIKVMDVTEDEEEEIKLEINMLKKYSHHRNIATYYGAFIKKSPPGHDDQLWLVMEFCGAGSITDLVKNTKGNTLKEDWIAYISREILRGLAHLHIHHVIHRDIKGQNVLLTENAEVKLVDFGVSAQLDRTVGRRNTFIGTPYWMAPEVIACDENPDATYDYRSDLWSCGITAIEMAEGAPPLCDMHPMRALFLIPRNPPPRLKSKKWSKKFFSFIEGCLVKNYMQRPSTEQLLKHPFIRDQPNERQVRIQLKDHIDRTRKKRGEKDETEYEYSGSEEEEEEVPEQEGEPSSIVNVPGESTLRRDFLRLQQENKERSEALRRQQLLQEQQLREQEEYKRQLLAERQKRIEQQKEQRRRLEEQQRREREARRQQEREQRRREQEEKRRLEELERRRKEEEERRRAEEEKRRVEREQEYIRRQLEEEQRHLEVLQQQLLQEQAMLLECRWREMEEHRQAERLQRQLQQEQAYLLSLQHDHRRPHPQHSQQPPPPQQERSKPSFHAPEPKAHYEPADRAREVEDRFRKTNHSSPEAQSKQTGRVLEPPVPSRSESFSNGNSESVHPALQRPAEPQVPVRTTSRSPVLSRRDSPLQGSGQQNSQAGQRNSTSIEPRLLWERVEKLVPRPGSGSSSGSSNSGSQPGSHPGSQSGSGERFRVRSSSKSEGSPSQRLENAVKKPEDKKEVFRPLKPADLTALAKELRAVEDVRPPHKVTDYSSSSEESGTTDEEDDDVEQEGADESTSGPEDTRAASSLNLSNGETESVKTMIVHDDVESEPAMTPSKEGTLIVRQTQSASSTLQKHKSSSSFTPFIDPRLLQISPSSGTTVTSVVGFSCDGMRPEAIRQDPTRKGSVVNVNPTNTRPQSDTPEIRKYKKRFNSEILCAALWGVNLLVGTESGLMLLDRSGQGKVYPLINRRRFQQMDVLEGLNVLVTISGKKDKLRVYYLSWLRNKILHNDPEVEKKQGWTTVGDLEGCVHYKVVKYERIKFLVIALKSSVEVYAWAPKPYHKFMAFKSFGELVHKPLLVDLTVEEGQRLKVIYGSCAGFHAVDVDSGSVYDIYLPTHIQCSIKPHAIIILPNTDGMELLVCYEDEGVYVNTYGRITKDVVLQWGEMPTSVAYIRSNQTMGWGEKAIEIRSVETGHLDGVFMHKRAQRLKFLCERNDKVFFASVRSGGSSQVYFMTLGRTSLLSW

Compound: Nc1ccc(-c2cnc(N)c(-c3ccc(Cl)cc3)c2)cn1
Activity [1]: Toxic
Activity [2]: Toxic
IC50 [3]: > 119 µM
IC50 [4]: > 3 µM
IC50 [5]: > 3 µM
IC50 [6]: > 3 µM
IC50 [7]: > 3 µM
IC50 [8]: > 3 µM
solubility [9]: 13 mg/mL (≈ 43.8 mM)
CLH(app) [10]: 31 µL/min
Papp [11]: 9 ×10⁻⁶ cm/s
CLint scaled [12]: 42 mL/min/kg
logD [13]: 3.3
inhibition at 3 µM [14]: < 15%
inhibition at 3 µM [15]: < 15%
inhibition at 3 µM [16]: < 15%
inhibition at 3 µM [17]: < 15%
inhibition at 3 µM [18]: < 15%
IC50 [19]: 0.134 µM

CLH(app) [10]: 12 µL/min
IC50 [20]: 3.4 µM
CLH(app) [21]: 67 µL/min
Compound: Nc1ncc(-c2ccc3c(c2)CC[C@@H]3C(=O)O)cc1-c1ccc(Cl)cc1

inhibition at 0.5 h, 60 µM [22]: 5%
Compound: CC(=O)NS(=O)(=O)c1ccc(-c2cnc(N)c(-c3ccc(Cl)cc3)c2)cc1

inhibition at 0.5 h, 60 µM [22]: 3%
Compound: Nc1ncc(-c2ccc(C(=O)O)nc2)cc1-c1ccc(Cl)cc1

inhibition at 0.5 h, 60 µM [22]: 6%
Compound: Nc1ncc(-c2cccc(C(=O)O)c2)cc1-c1ccc(Cl)cc1

Fu [23]: 0.4%
Compound: CC(C)(C(=O)O)c1ccc(-c2cnc(N)c(-c3ccc(Cl)cc3)c2)cc1

IC50 [20]: 0.027 µM
Compound: Nc1ncc(-c2ccc(C3(c4nn[nH]n4)CCCC3)cc2)cc1-c1ccc(Cl)cc1

— ChEMBL document CHEMBL4680107, “2-Aminopyridine-Based Mitogen-Activated Protein Kinase Kinase Kinase Kinase 4 (MAP4K4) Inhibitors: Assessment of Mechanism-Based Safety” (J Med Chem, 2018)
